Assays:
[1] = test system: Intracellular ROS production; test: Real-time ROS production (DCF assay); format: cell-based; settings: dose-independent, even at highly toxic MMS 80 μg/mL
Procedure: Intracellular ROS production was detected using DCFH-DA probe (Sigma) (Zanotto-Filho et al., 2010, Cancer Lett 288, 192-203). This reagent enters the cells and reacts predominantly with highly oxidizing species of ROS, such as hydroxyl radicals, hydroperoxides, and peroxynitrite, thus producing the fluorophore DCF. Briefly, cells were seeded in black-edge clear bottom 96-well plates. After reaching 70% confluence, medium was changed and cells were incubated with 20 μM DCFH-DA dissolved in medium containing 0.5% FBS. After 1 h pre-incubation to allow DCFH-DA uptake, treatments were added to its respective final concentrations and DCF fluorescence was monitored at 0.5, 1, 3, 8, 12, 16 and 24 h in a fluorescence reader (Ex/Em=485/532 nm). Hydrogen peroxide was used as a positive control and N-acetylcysteine (NAC), GSH-ethyl-ester (GSH-E) and Trolox were used as antioxidant standards. As a control, at the end of 24 h, cell viability was assessed and compared to wells in the absence of DCFH-DA.

[2] = test system: NRF2, GCLC, ER stress markers; test: Western blot of NRF2, GCLC and ER stress markers; format: cell-based; settings: MEFs, MDA-MB231, MCF-7; 8-12 h
Procedure: Western blot. Protein lysates were prepared using RIPA buffer containing 5% sodium deoxycholate, 0.1% SDS, 0.1% Igepal in PBS with a cocktail of protease and phosphatase inhibitors (1 mM PMSF, 1 mM sodium orthovanadate, 1 mM NaF, and 30 μL/mL aprotinin (Sigma-Aldrich, USA)) and clarified by centrifugation. Protein concentration was determined using Bradford Protein Assay Reagent (Biorad, Hercules, Calif.). Equal amounts of protein were resolved using 8-12% SDS polyacrylamide gel, transferred onto nitrocellulose membranes (Hybond-ECL, GE Healthcare Lifesciences, Piscataway, N.J.) and detected using Lumiglo system (Cell Signaling Technology, Calif.) and x-ray films. Primary antibodies included COX-2 (#4842), NRF2 (D1C9), p-JNK1/2 (Thr183/Tyr185, #4671), p-p38 (Thr180/Tyr182, #9216), p-ERK1/2 (Thr202/Tyr204, #9101), BiP/GRP78 (C50B12), IRE1a (14C10), CHOP (L63F7) and PERK (D11A8) from Cell Signaling Technology; p-IRE1a (Ser724; NB100-2323) from Novus Biologicals; GCLC (Ab41463), beta-actin (ab8227) and ATF6 (Ab37149) from Abcam; p-PERK (Thr 981, sc-32577) and ATF3 (C19) were purchased from Santa Cruz. All primary antibodies were used at 1:1000 dilutions and secondary antibodies were 1:3000 in TBS-T with 5% BSA.

Structure (SMILES): COS(C)(=O)=O [MMS, methyl-methanesulfonate]
- increase in ROS [1]: 1.5 fold
- NRF2 and GCLC protein levels [2]: rapidly increased in total and nuclear fractions

— patent US10231958B2, “Methods and compositions for enhancing chemotherapy” (THE BOARD OF REGENTS OF THE UNIVERSITY OF TEXAS SYSTEM, priority 2015, dated 2019)
